The test system of one data set is P. aeruginosa. The data set can be described thus: P. aeruginosa growth kinetics (spectrophotometric analysis at 600 nm). In kind it is cell-based, Pseudomonas aeruginosa. The conditions noted are these: FIG. 23B. From the text: P. aeruginosa strains include wild-type (PA14, see Rahme et al., Science 268:1899-1902, 1995); a PA14 mvfR mutant (Cao et al., Proc. Natl. Acad. Sci. USA 98:14613-14618, 2001); a pqsE deletion mutant, generated via pEX18Ap allelic replacement by using sucrose selection (Hoang et al., Gene 212:77-86, 1998), resulting in a 570-bp nonpolar deletion covering 65% of the sequence (Déziel et al. PNAS); and the pqsA (U479) TnphoA mutant obtained from the PA14 Transposon Insertion Mutant Database. Bacteria were grown in LB broth or on 1.5% Bacto-agar (Difco) LB plates. Freshly plated cells served as inoculum.
P. aeruginosa was grown in the presence of 2 mM of 2′-aminoacetophenone (2AA), 3′-aminoacetophenone (3AA), 4′-aminoacetophenone (4AA), or 2′-nitroacetophenone (2NA), or in the absence of any of these compounds (control). Bacterial growth was followed over 26 hours by spectrophotometric analysis at 600 nm.
Bacterial growth was also followed over 35 hours by spectrophotometric analysis at 600 nm.

Data set [1] relates to 4-hydroxy-2-alkylquinoline (HAQ) production. In kind it is cell-based, Pseudomonas aeruginosa.
Data set [2] relates to P. aeruginosa PA14. The data set can be described thus: Mouse burn and infection (BI) model, survival. In kind it is in vivo, mice. How it is done: Burn wound infection in mice can be established by subcutaneous or topical administration of the bacteria to the sites of the burn. […] Six-week old CD-1 male mice were used.
To induce infection, the mice were placed under general anesthesia via intraperitonial injection of 40 mg/kg Pentobarbital, the ventral surface was shaved, and a central skin fold elevated was simultaneously compressed from both sides for 5 seconds using two 2×2 cm metal blocks preheated to 95-100° C., to produce a non-lethal 5-8% full thickness burn with negligible focal necrosis of the underlying muscle or damage to underlying visceral organs. IP saline was administered for fluid resuscitation for ≧5% total body surface burns: avoiding vital structures, saline was injected into the left lower quadrant of the abdominal area of the anesthetized animal post-burn. This burn procedure was followed by mid-eschar inoculation of 100 μL of bacterial suspension containing ˜5×10^5 CFU. The animals were returned to their cages and provided mouse chow and water ad libitum. Animals typically recover from the anesthesia within 20 minutes post-administration. Criteria used to evaluate anesthesia recovery are state of alertness, mobility, and reaction to surrounding stimuli. Mice were monitored twice a day for symptoms and deaths, with increased monitoring every 6-8 hours during the period of greatest potential for infection and clinical disease.
The mouse full-thickness skin thermal injury infection model was used to test if 2AA restricts P, aeruginosa virulence. This model is predictable and reproducible; clinically relevant; and can lead to MODS and mortality. Briefly, a ˜15% total burn surface area (TBSA) thermal scalding injury is produced on the abdominal skin, leaving the underlying muscle intact, and the inoculum is delivered into the scald eschar. […]

Data set [3] can be described thus: Toxicity of IV 6-FABA in burned mice. In kind it is in vivo.
Method: Initial experiments were aimed at defining an appropriate mouse administration protocol for 6-FABA, with regard to concentration, time of administration following infection, and inhibition of virulence. […] Accordingly, burn and PA14 infected (BI) mice were subsequently administered a single injection of 20 mM 6-FABA at 6 or 12 hr post BI; and double injections at 6 and 24 hr BI.
The test system of data set [4] is P. aeruginosa PA14. The data set can be described thus: PA14 systemic spread in BI mice (cfu in muscle and blood). In kind it is in vivo. How it is done: Furthermore, 6-FABA, 6CABA, and 4CABA efficacy in limiting PA14 systemic spread was assessed by comparing burn mice infected with PA14 and then treated with the compounds at 6 hr BI with control untreated BI mice. For each experimental set of n=18, 6 mice were sacrificed at 24 hr, and bacteria numbers were determined in muscle tissue underlaying or adjacent to the […] site and in blood. The inoculation procedure used in the thermal injury model greatly limits the initial delivery of bacteria to blood and muscle, so bacteria in these tissues reflect post-infection systemic spread.
In an experiment to determine the whether 6-fluoro-2-aminobenzoic acid (6FABA) affects the systemic spread of P. aeruginosa cells in a mouse burn/infection model, the results of which are shown in FIGS. 28A and 28B, 15 mice were treated with 100 μL of a 20 mM solution of 6-FABA 6 hrs or 12 hours post-burn and infection, and the PA14 cfu/mg of tissue (i.e., in blood and in muscle adjacent to the burn and infection) was determined at 24 hours and 36 hours post-burn.

For a further data set, the target named is T1, PqsA (Pseudomonas aeruginosa, UniProt Q9I4X3).
T1 construct: endogenous in cells; host or cells: P. aeruginosa PA14 cultures
The data set can be described thus: Anthranilic acid accumulation and AA competition in PA14 cultures. In kind it is cell-based. An excerpt: In P. aeruginosa anthranilic acid is also produced by the enzymatic systems PhnAB or TrpEG. […] This accumulation could be due to inhibition of PqsA or of any enzyme downstream in the HAQ biosynthesis. […] This reversal could only be explained by a competitive inhibition of an enzyme acting on AA. Because pqsA is the only enzyme of the pqsA-E operon to present similarities with enzymes involved in the activation of aromatic acid group, like the one found in anthranilic acid, we conclude that these inhibitors act on PqsA in a competitive manner with its substrate AA.

The test system of the next data set is pyocyanin production. The data set can be described thus: Pyocyanin production. In kind it is cell-based, Pseudomonas aeruginosa.
Another data set can be described thus: physchem. The conditions noted are these: saline or isotonic.

The structures appear in SMILES notation. Converted amounts (≈) assume the structure as drawn. “Also recorded” adds a separate entry of the source.

T1 sequence (Q9I4X3 whole entry): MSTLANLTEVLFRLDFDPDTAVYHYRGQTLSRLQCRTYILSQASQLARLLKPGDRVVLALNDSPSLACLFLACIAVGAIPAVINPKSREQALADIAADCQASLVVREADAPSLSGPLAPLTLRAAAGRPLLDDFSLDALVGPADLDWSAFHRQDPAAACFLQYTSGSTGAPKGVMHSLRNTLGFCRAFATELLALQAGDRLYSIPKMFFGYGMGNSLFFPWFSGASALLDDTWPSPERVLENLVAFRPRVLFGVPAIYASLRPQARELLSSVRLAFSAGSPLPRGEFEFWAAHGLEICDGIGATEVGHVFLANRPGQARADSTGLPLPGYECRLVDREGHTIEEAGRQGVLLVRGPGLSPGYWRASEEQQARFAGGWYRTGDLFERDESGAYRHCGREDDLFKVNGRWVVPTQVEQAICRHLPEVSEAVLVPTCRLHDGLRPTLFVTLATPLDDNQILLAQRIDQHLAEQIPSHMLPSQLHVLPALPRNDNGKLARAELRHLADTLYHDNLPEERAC

Regarding `Nc1cccc(F)c1C(=O)O` [6-FABA, 6-fluoro-2-aminobenzoic acid], in the data set with P. aeruginosa, the “bacterial growth (PA14)” value was “without affecting bacterial growth”. Moreover, in data set [1], the “HAQ production / HAQs synthesis” value was “inhibited HAQ production; also recorded: completely halted”; the “inhibition of 4-hydroxy-2-alkylquinoline (HAQ) production” value was “potent inhibitors; also recorded: potently inhibit”; the “production of the principal members of the three main HAQ families (HHQ, HQNO, PQS)” value was “dramatically decreased; also recorded: strongly inhibited”. Besides, the “time course of mortality” value with P. aeruginosa PA14 [2] (single IV injection 20 mM at 6 hr BI (FIG. 26)) is on record as “delayed mortality”. Moreover, the survival in the data set on P. aeruginosa PA14 [2] (single IV injection 20 mM at 6 hr BI, control 10% (FIG. 26)) is listed as 40%. Moreover, the survival entry in the data set on P. aeruginosa PA14 [2] (single IV injection 20 mM at 12 hr BI (FIG. 26)) was “up to 60%”. The “final mice survival rate at 7 days post burn and infection” value in the data set on P. aeruginosa PA14 [2] (single IV injection at 6 hrs (100 μl 20 mM), control 10% (FIG. 24)) was about 35%. In data set [3] (second IV injection of 20 mM at 12 or 18 hr), the “toxicity (deaths)” value was “a significant number of mice die”. Further, the mortality (usually the share of the test organisms that died) in data set [3] (second IV injection of 20 mM at 24 hr) worked out at 10%. Further, the toxicity entry in data set [3] (single IV injection 100 μl 20 mM, 6 hrs post-burn) is reported as “non-toxic”. In addition, in the data set with P. aeruginosa PA14 [4] (100 μL of 20 mM 6-FABA post-burn and infection (FIG. 28A)), the “systemic dissemination of P. aeruginosa (cfu/mg in muscle adjacent to burn)” value is “limits significantly the systemic dissemination”. The bacteria in blood result with P. aeruginosa PA14 [4] (100 μL of 20 mM 6-FABA, blood at 24 hrs (FIG. 28B)) is “no bacteria are detected”. Further, the “accumulation of anthranilic acid” value at PqsA (PA14 culture with inhibitor vs control (FIG. 31)) is recorded as “transient accumulation”. Moreover, the “effect of increasing concentrations of AA on inhibition of HAQ production” value at PqsA (culture containing 1.5 mM inhibitor (FIG. 32)) is “reversed the inhibition”. Besides, the pyocyanin production result with pyocyanin production is given as “without abrogating pyocyanin production”. The solubility – broadly, the concentration that dissolves in the medium under given conditions – in the data set “physchem” was found to be 20 mM (≈ 3100 µg/mL).

The record behind these values is US20130209515A1, “ANTI-INFECTIVE AND IMMUNOMODULATORY COMPOUNDS” (priority 2005, published 2013).
